Assay results: article PMC8618442, “Solubility of Cinnarizine in (Transcutol + Water) Mixtures: Determination, Hansen Solubility Parameters, Correlation, and Thermodynamics” (Molecules, 2021)
≈ marks a conversion by molar mass, not a printed value. Read-outs that look alike come from different tables or passages of the source.

Assays:
[1] = Shake-flask equilibrium solubility of CNZ in {TP + water} mixtures and neat solvents (HPLC at 253 nm); assay type: physicochemical; details: 0.1 MPa
Method: Using a Digital Analytical Balance (Mettler Toledo, Greifensee, Switzerland) with a sensitivity of 0.10 mg, all {TP (1) + water (2)} combinations were created on a mass basis. The mass fraction of TP used to make various {TP (1) + water (2)} compositions ranged from 0.10–0.90. Three replicates of each {TP (1) + water (2)} composition were made.
Three repetitions of each experiment were carried out. Inside the Biological Shaker (Julabo, PA, USA), the acquired samples were saturated for three days to achieve equilibrium. After reaching equilibrium, the saturated samples were withdrawn from the shaker and centrifuged at 5000 rpm.

[2] = set-up: method as in doi:10.1021/acs.jced.5b00075; details: cited from earlier work
[3] = set-up: method as in PMID 25478230; details: cited from earlier work
[4] = cited from earlier work
[5] = Apparent thermodynamic analysis of CNZ dissolution (van't Hoff and Gibbs equations); assay type: physicochemical
Method: At the mean harmonic temperature (Thm), all apparent thermodynamic parameters were examined. The Thm was calculated using the usual formula [27]. […] The van’t Hoff and Gibbs equations were used to conduct this analysis.

[6] = TP + water, w1 = 0.1, Thm = 303.0 K
[7] = TP + water, w1 = 0.2, Thm = 303.0 K
[8] = TP + water, w1 = 0.3, Thm = 303.0 K
[9] = TP + water, w1 = 0.4, Thm = 303.0 K
[10] = TP + water, w1 = 0.5, Thm = 303.0 K
[11] = TP + water, w1 = 0.6, Thm = 303.0 K
[12] = TP + water, w1 = 0.7, Thm = 303.0 K
[13] = TP + water, w1 = 0.8, Thm = 303.0 K
[14] = TP + water, w1 = 0.9, Thm = 303.0 K
[15] = w1 = 0.0 (neat water), Thm = 303.0 K
[16] = w1 = 1.0 (neat TP), Thm = 303.0 K

## C(=C\c1ccccc1)/CN1CCN(C(c2ccccc2)c2ccccc2)CC1 [CNZ, 1-benzhydryl-4-[(E)-3-phenylprop-2-enyl]piperazine]
[1]; TP + water, w1 = 0.1, T = 293.2 K
  Solubility (xe) in mole fraction: 1.66 × 10^−7 mole fraction
[1]; TP + water, w1 = 0.1, T = 298.2 K
  Solubility (xe) in mole fraction: 2.30 × 10^−7 mole fraction
[1]; TP + water, w1 = 0.1, T = 303.2 K
  Solubility (xe) in mole fraction: 3.16 × 10^−7 mole fraction
[1]; TP + water, w1 = 0.1, T = 308.2 K
  Solubility (xe) in mole fraction: 3.91 × 10^−7 mole fraction
[1]; TP + water, w1 = 0.1, T = 313.2 K
  Solubility (xe) in mole fraction: 5.30 × 10^−7 mole fraction
[1]; TP + water, w1 = 0.2, T = 293.2 K
  Solubility (xe) in mole fraction: 6.50 × 10^−7 mole fraction
[1]; TP + water, w1 = 0.2, T = 298.2 K
  Solubility (xe) in mole fraction: 8.87 × 10^−7 mole fraction
[1]; TP + water, w1 = 0.2, T = 303.2 K
  Solubility (xe) in mole fraction: 1.23 × 10^−6 mole fraction
[1]; TP + water, w1 = 0.2, T = 308.2 K
  Solubility (xe) in mole fraction: 1.51 × 10^−6 mole fraction
[1]; TP + water, w1 = 0.2, T = 313.2 K
  Solubility (xe) in mole fraction: 1.95 × 10^−6 mole fraction
[1]; TP + water, w1 = 0.3, T = 293.2 K
  Solubility (xe) in mole fraction: 2.64 × 10^−6 mole fraction
[1]; TP + water, w1 = 0.3, T = 298.2 K
  Solubility (xe) in mole fraction: 3.50 × 10^−6 mole fraction
[1]; TP + water, w1 = 0.3, T = 303.2 K
  Solubility (xe) in mole fraction: 4.49 × 10^−6 mole fraction
[1]; TP + water, w1 = 0.3, T = 308.2 K
  Solubility (xe) in mole fraction: 5.35 × 10^−6 mole fraction
[1]; TP + water, w1 = 0.3, T = 313.2 K
  Solubility (xe) in mole fraction: 7.00 × 10^−6 mole fraction
[1]; TP + water, w1 = 0.4, T = 293.2 K
  Solubility (xe) in mole fraction: 1.12 × 10^−5 mole fraction
[1]; TP + water, w1 = 0.4, T = 298.2 K
  Solubility (xe) in mole fraction: 1.42 × 10^−5 mole fraction
[1]; TP + water, w1 = 0.4, T = 303.2 K
  Solubility (xe) in mole fraction: 1.72 × 10^−5 mole fraction
[1]; TP + water, w1 = 0.4, T = 308.2 K
  Solubility (xe) in mole fraction: 2.09 × 10^−5 mole fraction
[1]; TP + water, w1 = 0.4, T = 313.2 K
  Solubility (xe) in mole fraction: 2.62 × 10^−5 mole fraction
[1]; TP + water, w1 = 0.5, T = 293.2 K
  Solubility (xe) in mole fraction: 4.24 × 10^−5 mole fraction
[1]; TP + water, w1 = 0.5, T = 298.2 K
  Solubility (xe) in mole fraction: 5.26 × 10^−5 mole fraction
[1]; TP + water, w1 = 0.5, T = 303.2 K
  Solubility (xe) in mole fraction: 6.34 × 10^−5 mole fraction
[1]; TP + water, w1 = 0.5, T = 308.2 K
  Solubility (xe) in mole fraction: 7.33 × 10^−5 mole fraction
[1]; TP + water, w1 = 0.5, T = 313.2 K
  Solubility (xe) in mole fraction: 9.22 × 10^−5 mole fraction
[1]; TP + water, w1 = 0.6, T = 293.2 K
  Solubility (xe) in mole fraction: 1.73 × 10^−4 mole fraction
[1]; TP + water, w1 = 0.6, T = 298.2 K
  Solubility (xe) in mole fraction: 2.10 × 10^−4 mole fraction
[1]; TP + water, w1 = 0.6, T = 303.2 K
  Solubility (xe) in mole fraction: 2.44 × 10^−4 mole fraction
[1]; TP + water, w1 = 0.6, T = 308.2 K
  Solubility (xe) in mole fraction: 2.77 × 10^−4 mole fraction
[1]; TP + water, w1 = 0.6, T = 313.2 K
  Solubility (xe) in mole fraction: 3.36 × 10^−4 mole fraction
[1]; TP + water, w1 = 0.7, T = 293.2 K
  Solubility (xe) in mole fraction: 6.89 × 10^−4 mole fraction
[1]; TP + water, w1 = 0.7, T = 298.2 K
  Solubility (xe) in mole fraction: 8.00 × 10^−4 mole fraction
[1]; TP + water, w1 = 0.7, T = 303.2 K
  Solubility (xe) in mole fraction: 9.22 × 10^−4 mole fraction
[1]; TP + water, w1 = 0.7, T = 308.2 K
  Solubility (xe) in mole fraction: 1.05 × 10^−3 mole fraction
[1]; TP + water, w1 = 0.7, T = 313.2 K
  Solubility (xe) in mole fraction: 1.23 × 10^−3 mole fraction
[1]; TP + water, w1 = 0.8, T = 293.2 K
  Solubility (xe) in mole fraction: 2.81 × 10^−3 mole fraction
[1]; TP + water, w1 = 0.8, T = 298.2 K
  Solubility (xe) in mole fraction: 3.17 × 10^−3 mole fraction
[1]; TP + water, w1 = 0.8, T = 303.2 K
  Solubility (xe) in mole fraction: 3.53 × 10^−3 mole fraction
[1]; TP + water, w1 = 0.8, T = 308.2 K
  Solubility (xe) in mole fraction: 3.90 × 10^−3 mole fraction
[1]; TP + water, w1 = 0.8, T = 313.2 K
  Solubility (xe) in mole fraction: 4.43 × 10^−3 mole fraction
[1]; TP + water, w1 = 0.9, T = 293.2 K
  Solubility (xe) in mole fraction: 1.12 × 10^−2 mole fraction
[1]; TP + water, w1 = 0.9, T = 298.2 K
  Solubility (xe) in mole fraction: 1.25 × 10^−2 mole fraction
[1]; TP + water, w1 = 0.9, T = 303.2 K
  Solubility (xe) in mole fraction: 1.38 × 10^−2 mole fraction
[1]; TP + water, w1 = 0.9, T = 308.2 K
  Solubility (xe) in mole fraction: 1.48 × 10^−2 mole fraction
[1]; TP + water, w1 = 0.9, T = 313.2 K
  Solubility (xe) in mole fraction: 1.62 × 10^−2 mole fraction
[1]; w1 (TP mass fraction) = 0.0 (neat water), T = 293.2 K
  Solubility (xe) in mole fraction: 3.91 × 10^−8 mole fraction
[1]; w1 = 0.0 (neat water), T = 298.2 K
  Solubility (xe) in mole fraction: 5.67 × 10^−8 mole fraction
[1]; w1 = 0.0 (neat water), T = 303.2 K
  Solubility (xe) in mole fraction: 7.82 × 10^−8 mole fraction
[1]; w1 = 0.0 (neat water), T = 308.2 K
  Solubility (xe) in mole fraction: 9.78 × 10^−8 mole fraction
[1]; w1 = 0.0 (neat water), T = 313.2 K
  Solubility (xe) in mole fraction: 1.42 × 10^−7 mole fraction
[1]; w1 = 1.0 (neat TP), T = 293.2 K
  Solubility (xe) in mole fraction: 4.52 × 10^−2 mole fraction
[1]; w1 = 1.0 (neat TP), T = 298.2 K
  Solubility (xe) in mole fraction: 4.78 × 10^−2 mole fraction
[1]; w1 = 1.0 (neat TP), T = 303.2 K
  Solubility (xe) in mole fraction: 5.08 × 10^−2 mole fraction
[1]; w1 = 1.0 (neat TP), T = 308.2 K
  Solubility (xe) in mole fraction: 5.44 × 10^−2 mole fraction
[1]; w1 = 1.0 (neat TP), T = 313.2 K
  Solubility (xe) in mole fraction: 5.83 × 10^−2 mole fraction
[2]; 298.3 K
  Mole fraction solubility in water: 6.63 × 10^−8 mole fraction
[2]; 303.0 K
  Mole fraction solubility in water: 7.71 × 10^−8 mole fraction
[2]; 307.8 K
  Mole fraction solubility in water: 9.35 × 10^−8 mole fraction
[3]; pH = 2.0, 310.2 K
  Solubility in aqueous buffer: 0.29 mg/mL (≈ 787 µM)
[3]; pH = 5.0, 310.2 K
  Solubility in aqueous buffer: 0.017 mg/mL (≈ 46.1 µM)
[3]; pH = 6.5, 310.2 K
  Solubility in aqueous buffer: 0.002 mg/mL (≈ 5.43 µM)
[4]
  Solubility in water: practically insoluble in water
[5]; [6]
  Apparent standard Gibbs energy (ΔsolnG°): 37.82 kJ/mol
  Apparent standard enthalpy (ΔsolnH°): 43.56 kJ/mol
  Apparent standard entropy (ΔsolnS°): 18.92 J mol^−1 K^−1
[5]; [7]
  Apparent standard Gibbs energy (ΔsolnG°): 34.43 kJ/mol
  Apparent standard enthalpy (ΔsolnH°): 41.69 kJ/mol
  Apparent standard entropy (ΔsolnS°): 23.94 J mol^−1 K^−1
[5]; [8]
  Apparent standard Gibbs energy (ΔsolnG°): 31.10 kJ/mol
  Apparent standard enthalpy (ΔsolnH°): 36.24 kJ/mol
  Apparent standard entropy (ΔsolnS°): 16.96 J mol^−1 K^−1
[5]; [9]
  Apparent standard Gibbs energy (ΔsolnG°): 27.64 kJ/mol
  Apparent standard enthalpy (ΔsolnH°): 31.78 kJ/mol
  Apparent standard entropy (ΔsolnS°): 13.68 J mol^−1 K^−1
[5]; [10]
  Apparent standard Gibbs energy (ΔsolnG°): 24.38 kJ/mol
  Apparent standard enthalpy (ΔsolnH°): 28.78 kJ/mol
  Apparent standard entropy (ΔsolnS°): 14.50 J mol^−1 K^−1
[5]; [11]
  Apparent standard Gibbs energy (ΔsolnG°): 20.98 kJ/mol
  Apparent standard enthalpy (ΔsolnH°): 24.49 kJ/mol
  Apparent standard entropy (ΔsolnS°): 11.57 J mol^−1 K^−1
[5]; [12]
  Apparent standard Gibbs energy (ΔsolnG°): 17.61 kJ/mol
  Apparent standard enthalpy (ΔsolnH°): 21.80 kJ/mol
  Apparent standard entropy (ΔsolnS°): 13.82 J mol^−1 K^−1
[5]; [13]
  Apparent standard Gibbs energy (ΔsolnG°): 14.23 kJ/mol
  Apparent standard enthalpy (ΔsolnH°): 17.09 kJ/mol
  Apparent standard entropy (ΔsolnS°): 9.464 J mol^−1 K^−1
[5]; [14]
  Apparent standard Gibbs energy (ΔsolnG°): 10.83 kJ/mol
  Apparent standard enthalpy (ΔsolnH°): 14.08 kJ/mol
  Apparent standard entropy (ΔsolnS°): 10.72 J mol^−1 K^−1
[5]; [15]
  Apparent standard Gibbs energy (ΔsolnG°): 41.32 kJ/mol
  Apparent standard enthalpy (ΔsolnH°): 47.65 kJ/mol
[5]; [16]
  Apparent standard Gibbs energy (ΔsolnG°): 7.492 kJ/mol
  Apparent standard enthalpy (ΔsolnH°): 9.719 kJ/mol
  Apparent standard entropy (ΔsolnS°): 7.346 J mol^−1 K^−1
